Experimental data taken from patent publication US20120295982A1, “TREATING HUMAN MALE COPD PATIENTS WITH ORAL BEDORADRINE” (MediciNova, Inc., priority 2011, published 2012).
Counter-ions that a name gives are not always drawn.

Key:
[1] = Oral bioavailability in rats; assay type: in vivo
[2] = Oral bioavailability in rabbits; conditions: rabbit, in vivo, read-out: Oral F %
[3] = Oral bioavailability in dogs; conditions: dog, in vivo, read-out: Oral F %
[4] = tested on: patients with acute exacerbations of asthma (AEA); assay: Placebo-controlled dose-escalating test of i.v. MN-221 plus standard of care in acute exacerbations of asthma (emergency department); assay type: in vivo, human
Protocol: This example provides certain preferred oral dosages for treating male COPD patients according to this invention. Initially, the efficacy and safety of administering intravenous MN-221 in combination with standard of care (SOC) for treating acute exacerbations of asthma (AEA) in an emergency department (ED) setting is determined. The testing was performed in a randomized, placebo-controlled, dose-escalating, setting. Twenty nine patients received SOC (nebulized albuterol and ipratropium plus oral corticosteroid). Patients with FEV1≦55% of predicted were randomized to MN-221 (240 or 450 μg infused over 15 min or 1080 μg over 2 hr) or Placebo. MN-221 was administered as follows: 16 μg/min for 15 min (total dose of 240 μg); 30 μg/min for 15 min (total dose of 450 μg); 16 μg/min for 15 min+8 μg/min for 105 min (total dose of 1,080 μg); and 2 patients received total dose of 1,995 μg. Safety, efficacy and PK parameters were monitored hourly throughout a 5 hr treatment period and a 24 hr follow-up visit. Nebulized albuterol (2.5 mg) and/or ipratropium (0.5 mg) was available hourly during screening and treatment phases. Efficacy endpoints included spirometry, dyspnea indexing, albuterol use, and hospitalization rates. The testing was completed with 13 patients (n=13) in SOC+Placebo and 16 patients (n=16) receiving SOC+MN-221; 5 at 240 μg, 6 at 450 μg, and 5 intended for a 1080 μg dose. Patients received Standard of Care (SOC) treatment in addition to adjunctive treatment with MN-221 or placebo. MN-221 was well-tolerated.

- bioavailability ([1]; rat, in vivo, po, rats, read-out: Oral F %): ≤ 3%
- bioavailability [2]: ≤ 3%
- bioavailability [3]: 39%
SMILES: CN(C)C(=O)COc1ccc2c(c1)C[C@@H](NC[C@H](O)c1ccc(O)c(CCO)c1)CC2 [MN-221, bedoradrine sulfate]
- gender difference of oral bioavailability ([1]; orally administered, female vs male rats): greater bioavailability in female rats compared to male rats
- heart rate relative to Placebo ([4]; all MN-221 group): minimally elevated
- hospitalization rate ([4]; all MN-221 group (4/16), i.v. plus SOC): 25%
- FEV1 (% predicted), change from baseline in AUC1-5 hr, higher vs. Placebo ([4]; all MN-221 group vs. Placebo): 43%
- tolerability ([4]; i.v. MN-221 240-1080 μg plus standard of care, AEA patients): well-tolerated
- electrocardiograph (ECG) findings ([4]; i.v. MN-221 plus SOC): No abnormal electrocardiograph (ECG) findings were observed
- intensity of the majority of adverse events ([4]; i.v. MN-221 plus SOC): mild to moderate in intensity
